{"source": "patent US8044079B2", "about": "“Substituted oxindole derivatives, medicaments containing said derivatives and use thereof” (Abbott GmbH & Co. KG, priority 2005, dated 2011)", "data": [{"target": "T1, human vasopressin V1b receptor (Homo sapiens, UniProt P47901)", "T1 construct": "expressed in transfected cells; host or cells: CHO-K1 (cell line hV1b_3H2_CHO), membrane preparation", "T1 sequence (P47901 1-424)": "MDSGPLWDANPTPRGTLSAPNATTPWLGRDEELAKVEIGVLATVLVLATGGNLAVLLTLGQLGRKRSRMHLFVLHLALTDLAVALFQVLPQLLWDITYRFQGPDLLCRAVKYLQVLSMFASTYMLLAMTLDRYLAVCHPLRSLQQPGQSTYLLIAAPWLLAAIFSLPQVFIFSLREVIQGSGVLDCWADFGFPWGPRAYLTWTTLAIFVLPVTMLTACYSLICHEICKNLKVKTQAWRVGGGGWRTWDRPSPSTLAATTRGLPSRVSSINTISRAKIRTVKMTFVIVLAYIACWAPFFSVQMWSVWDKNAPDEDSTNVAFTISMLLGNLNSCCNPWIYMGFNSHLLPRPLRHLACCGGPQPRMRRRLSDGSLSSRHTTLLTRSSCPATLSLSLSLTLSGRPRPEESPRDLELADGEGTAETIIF", "assay": "Vasopressin V1b receptor binding test", "conditions": "membranes of CHO-K1 cells with human V1b receptor, displacement of 1.5 nM 3H-AVP; for compounds with more than one stereogenic center the diastereomer with greater affinity", "how_it_was_run": "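Radioligand displacement on membranes carrying human V1b receptor in 50 mM tris, 10 mM MgCl2, 0.1% BSA, pH 7.4, 2% DMSO final; 60 min at room temperature, nonspecific binding with 1 μM AVP. Free ligand removed by filtration, bound counted by liquid scintillation, Ki from nonlinear regression of triplicates.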", "units": {"Ki": "nM"}, "values": [{"smiles": "COc1ccc(S(=O)(=O)N2C(=O)C(c3cc(CN4CCN(C)CC4)ccc3OC)(N3C[C@H](OC(C)(C)C)C[C@H]3c3ncco3)c3cc(Cl)ccc32)cc1", "note": "(stereo partly drawn) [Example 214, 3-((2S,4R)-4-tert-butoxy-2-oxazol-2-yl-pyrrolidin-1-yl)-5-chloro-1-(4-methoxybenzenesulfonyl)-3-[2-methoxy-5-(4-methylpiperazin-1-ylmethyl)phenyl]-1,3-dihydroindol-2-one]", "Ki": "< 10"}, {"smiles": "COc1ccc(S(=O)(=O)N2C(=O)C(c3cc(CN4CCN(CCO)CC4)ccc3OC)(N3C[C@H](OC(C)(C)C)C[C@H]3c3ncco3)c3cc(Cl)ccc32)cc1", "note": "(stereo partly drawn) [Example 215, 5-Chloro-3-((2S,4R)-4-tert-butoxy-2-oxazol-2-yl-pyrrolidin-1-yl)-3-{5-[4-(2-hydroxyethyl)piperazin-1-ylmethyl]-2-methoxyphenyl}-1-(4-methoxybenzenesulfonyl)-1,3-dihydroindol-2-one]", "Ki": "10 to 100"}, {"smiles": "CCNCc1ccc(OC)c(C2(N3CCC[C@H]3c3ncon3)C(=O)N(S(=O)(=O)c3ccc(OC)cc3)c3ccc(Cl)cc32)c1", "note": "(stereo partly drawn) [Example 216, 5-Chloro-3-(5-ethylaminomethyl-2-methoxyphenyl)-1-(4-methoxybenzenesulfonyl)-3-((S)-2-[1,2,4]oxadiazol-3-yl-pyrrolidin-1-yl)-1,3-dihydroindol-2-one]", "Ki": "< 10"}, {"smiles": "CNCc1ccc(C2(N3C[C@H](O)C[C@H]3c3ncco3)C(=O)N(S(=O)(=O)c3ccc(OC)cc3)c3ccc(Cl)cc32)c(OC)c1", "note": "(stereo partly drawn) [Example 217, 5-Chloro-3-((2S,4R)-4-hydroxy-2-oxazol-2-yl-pyrrolidin-1-yl)-1-(4-methoxybenzenesulfonyl)-3-(2-methoxy-4-methylaminomethylphenyl)-1,3-dihydroindol-2-one]", "Ki": "< 10"}, {"smiles": "COc1ccc(S(=O)(=O)N2C(=O)C(c3cc(CN(C)C)ccc3OC)(N3C[C@H](OC(C)(C)C)C[C@H]3c3ncco3)c3cc(Cl)ccc32)cc1", "note": "(stereo partly drawn) [Example 218, 3-((2S,4R)-4-tert-butoxy-2-oxazol-2-yl-pyrrolidin-1-yl)-5-chloro-3-(5-dimethylaminomethyl-2-methoxyphenyl)-1-(4-methoxybenzenesulfonyl)-1,3-dihydroindol-2-one]", "Ki": "10 to 100"}, {"smiles": "CCNCc1ccc(OC)c(C2(N3C[C@H](OC(C)(C)C)C[C@H]3c3ncco3)C(=O)N(S(=O)(=O)c3ccc(OC)cc3)c3ccc(Cl)cc32)c1", "note": "(stereo partly drawn) [Example 219, 3-((2S,4R)-4-tert-butoxy-2-oxazol-2-yl-pyrrolidin-1-yl)-5-chloro-3-(5-ethylaminomethyl-2-methoxyphenyl)-1-(4-methoxybenzenesulfonyl)-1,3-dihydroindol-2-one]", "Ki": "< 10"}, {"smiles": "COc1ccc(S(=O)(=O)N2C(=O)C(c3cc(CN4CCOCC4)ccc3OC)(N3C[C@H](O)C[C@H]3c3ncco3)c3cc(C#N)ccc32)cc1", "note": "(stereo partly drawn) [Example 220, 5-Cyano-3-((2S,4R)-4-hydroxy-2-oxazol-2-yl-pyrrolidin-1-yl)-1-(4-methoxybenzenesulfonyl)-3-(2-methoxy-5-morpholin-4-ylmethylphenyl)-1,3-dihydroindol-2-one]", "Ki": "10 to 100"}, {"smiles": "CCN1CCN(Cc2ccc(OC)c(C3(N4C[C@H](O)C[C@H]4c4ncco4)C(=O)N(S(=O)(=O)c4ccc(OC)cc4)c4ccc(C#N)cc43)c2)CC1", "note": "(stereo partly drawn) [Example 221, 5-Cyano-3-[5-(4-ethylpiperazin-1-ylmethyl)-2-methoxyphenyl]-3-((2S,4R)-4-hydroxy-2-oxazol-2-yl-pyrrolidin-1-yl)-1-(4-methoxybenzenesulfonyl)-2,3-dihydro-1H-indol-2-one]", "Ki": "< 10"}, {"smiles": "COc1ccc(S(=O)(=O)N2C(=O)C(c3cc(CN4CCN(CCO)CC4)ccc3OC)(N3C[C@H](O)C[C@H]3c3ncco3)c3cc(C#N)ccc32)cc1", "note": "(stereo partly drawn) [Example 222, 5-Cyano-3-{5-[4-(2-hydroxyethyl)piperazin-1-ylmethyl]-2-methoxyphenyl}-3-((2S,4R)-4-hydroxy-2-oxazol-2-yl-pyrrolidin-1-yl)-1-(4-methoxybenzenesulfonyl)-2,3-dihydro-1H-indol-2-one]", "Ki": "10 to 100"}, {"smiles": "COc1ccc(S(=O)(=O)N2C(=O)C(c3cc(CN(C)C)ccc3OC)(N3C[C@H](OC)C[C@H]3c3ncco3)c3cc(Cl)ccc32)cc1", "note": "(stereo partly drawn) [Example 223, 5-Chloro-3-(5-dimethylaminomethyl-2-methoxyphenyl)-1-(4-methoxybenzenesulfonyl)-3-((2S,4R)-4-methoxy-2-oxazol-2-yl-pyrrolidin-1-yl)-1,3-dihydroindol-2-one]", "Ki": "< 10"}, {"smiles": "COc1ccc(S(=O)(=O)N2C(=O)C(c3cc(CN4CCN(C)CC4)ccc3OC)(N3C[C@H](OC)C[C@H]3c3ncco3)c3cc(Cl)ccc32)cc1", "note": "(stereo partly drawn) [Example 224, 5-Chloro-1-(4-methoxybenzenesulfonyl)-3-[2-methoxy-5-(4-methylpiperazin-1-ylmethyl)phenyl]-3-((2S,4R)-4-methoxy-2-oxazol-2-yl-pyrrolidin-1-yl)-1,3-dihydroindol-2-one]", "Ki": "< 10"}, {"smiles": "COc1ccc(S(=O)(=O)N2C(=O)C(c3cc(CN4CCN(C)CC4)ccc3OC)(N3CCC[C@@]3(C)c3ncco3)c3cc(Cl)ccc32)cc1", "note": "(stereo partly drawn) [Example 225, 5-Chloro-1-(4-methoxybenzenesulfonyl)-3-[2-methoxy-5-(4-methylpiperazin-1-ylmethyl)phenyl]-3-((S)-2-methyl-2-oxazol-2-yl-pyrrolidin-1-yl)-1,3-dihydroindol-2-one]", "Ki": "10 to 100"}, {"smiles": "COc1ccc(S(=O)(=O)N2C(=O)C(c3cc(CN4CCN(CCO)CC4)ccc3OC)(N3CCC[C@@]3(C)c3ncco3)c3cc(Cl)ccc32)cc1", "note": "(stereo partly drawn) [Example 226, 5-Chloro-3-{5-[4-(2-hydroxyethyl)piperazin-1-ylmethyl]-2-methoxyphenyl}-1-(4-methoxybenzenesulfonyl)-3-((S)-2-methyl-2-oxazol-2-yl-pyrrolidin-1-yl)-1,3-dihydroindol-2-one]", "Ki": "< 10"}, {"smiles": "CNCc1ccc(OC)c(C2(N3CCC[C@@]3(C)c3ncco3)C(=O)N(S(=O)(=O)c3ccc(OC)cc3)c3ccc(Cl)cc32)c1", "note": "(stereo partly drawn) [Example 227, 5-Chloro-1-(4-methoxybenzenesulfonyl)-3-(2-methoxy-5-methylaminomethylphenyl)-3-((S)-2-methyl-2-oxazol-2-yl-pyrrolidin-1-yl)-1,3-dihydroindol-2-one]", "Ki": "< 10"}, {"smiles": "COc1ccc(S(=O)(=O)N2C(=O)C(c3cc(CN4CCN(C)CC4)ccc3OC)(N3C[C@H](F)C[C@H]3c3ncco3)c3cc(C#N)ccc32)cc1", "note": "(stereo partly drawn) [Example 228, 5-Cyano-3-((2S,4R)-4-fluoro-2-oxazol-2-yl-pyrrolidin-1-yl)-1-(4-methoxybenzenesulfonyl)-3-[2-methoxy-5-(4-methylpiperazin-1-ylmethyl)phenyl]-1,3-dihydroindol-2-one]", "Ki": "10 to 100"}, {"smiles": "COc1ccc(S(=O)(=O)N2C(=O)C(c3cc(CN4CCN(CCO)CC4)ccc3OC)(N3C[C@H](F)C[C@H]3c3ncco3)c3cc(C#N)ccc32)cc1", "note": "(stereo partly drawn) [Example 229, 5-Cyano-3-((2S,4R)-4-fluoro-2-oxazol-2-yl-pyrrolidin-1-yl)-3-{5-[4-(2-hydroxyethyl)piperazin-1-ylmethyl]-2-methoxyphenyl}-1-(4-methoxybenzenesulfonyl)-1,3-dihydroindol-2-one]", "Ki": "10 to 100"}, {"smiles": "COc1ccc(S(=O)(=O)N2C(=O)C(c3cc(CN(C)C)ccc3OC)(N3C[C@H](F)C[C@H]3c3ncco3)c3cc(C#N)ccc32)cc1", "note": "(stereo partly drawn) [Example 230, 5-Cyano-3-(5-dimethylaminomethyl-2-methoxyphenyl)-3-((2S,4R)-4-fluoro-2-oxazol-2-yl-pyrrolidin-1-yl)-1-(4-methoxybenzenesulfonyl)-1,3-dihydroindol-2-one]", "Ki": "10 to 100"}]}]}
